Measured values: PubChem BioAssay (NCI)
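Briefly, cells in 96-well plates were exposed to five compound concentrations for 48 h, and endpoints were estimated by linear interpolation. GI50 marks 50% less growth. At the TGI there is no net growth.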

What was measured:
Test in all cases: NCI-60 cell line screen, 48 h
OVCAR-5 ovarian = system: OVCAR-5 ovarian
DU-145 prostate = system: DU-145 prostate
SNB-75 CNS = system: SNB-75 CNS
MDA-MB-231 breast = system: MDA-MB-231 breast
MCF7 breast = system: MCF7 breast
UACC-257 melanoma = system: UACC-257 melanoma
ACHN renal = system: ACHN renal
786-0 renal = system: 786-0 renal
CAKI-1 renal = system: CAKI-1 renal
NCI-H226 lung = system: NCI-H226 lung
RPMI-8226 leukemia = system: RPMI-8226 leukemia
HL-60(TB) leukemia = system: HL-60(TB) leukemia
MALME-3M melanoma = system: MALME-3M melanoma
K-562 leukemia = system: K-562 leukemia
HOP-62 NSCLC = system: HOP-62 NSCLC
SK-MEL-5 melanoma = system: SK-MEL-5 melanoma
A498 renal = system: A498 renal
COLO 205 colon = system: COLO 205 colon
HCT-15 colon = system: HCT-15 colon
TK-10 renal = system: TK-10 renal
IGROV1 ovarian = system: IGROV1 ovarian
OVCAR-4 ovarian = system: OVCAR-4 ovarian
A549 NSCLC = system: A549 NSCLC
PC-3 prostate = system: PC-3 prostate
UACC-62 melanoma = system: UACC-62 melanoma
SN12C renal = system: SN12C renal
SK-OV-3 ovarian = system: SK-OV-3 ovarian
T-47D breast = system: T-47D breast
NCI-H522 lung = system: NCI-H522 lung
HS 578T breast = system: HS 578T breast
RXF 393 renal = system: RXF 393 renal
OVCAR-8 ovarian = system: OVCAR-8 ovarian
EKVX NSCLC = system: EKVX NSCLC
OVCAR-3 ovarian = system: OVCAR-3 ovarian
HOP-92 NSCLC = system: HOP-92 NSCLC
SF-295 CNS = system: SF-295 CNS
SF-539 CNS = system: SF-539 CNS
KM12 colon = system: KM12 colon
SNB-19 CNS = system: SNB-19 CNS
NCI/ADR-RES ovarian = system: NCI/ADR-RES ovarian
MDA-MB-435 = system: MDA-MB-435
MOLT-4 leukemia = system: MOLT-4 leukemia
HT29 colon = system: HT29 colon
BT-549 breast = system: BT-549 breast
HCC-2998 colon = system: HCC-2998 colon
NCI-H460 lung = system: NCI-H460 lung
SR leukemia = system: SR leukemia
NCI-H23 lung = system: NCI-H23 lung
LOX IMVI melanoma = system: LOX IMVI melanoma
SW-620 colon = system: SW-620 colon
UO-31 renal = system: UO-31 renal
SK-MEL-2 melanoma = system: SK-MEL-2 melanoma
U251 CNS = system: U251 CNS
CCRF-CEM leukemia = system: CCRF-CEM leukemia
SF-268 CNS = system: SF-268 CNS
SK-MEL-28 melanoma = system: SK-MEL-28 melanoma
HCT-116 colon = system: HCT-116 colon

## COc1cc(-c2cc(-c3cccs3)c(C#N)c(N3CCOCC3)n2)cc(OC)c1OC
OVCAR-5 ovarian
  GI50: > 100 µM
  TGI: > 100 µM
DU-145 prostate
  GI50: 13.7 µM
  TGI: > 100 µM
SNB-75 CNS
  GI50: 10 µM
  TGI: > 63 µM
MDA-MB-231 breast
  GI50: 5.83 µM
  TGI: > 100 µM
MCF7 breast
  GI50: 6.68 µM
  TGI: > 100 µM
UACC-257 melanoma
  GI50: 3.22 µM
  TGI: 9.9 µM
ACHN renal
  GI50: 6.45 µM
  TGI: > 100 µM
786-0 renal
  GI50: 1.82 µM
  TGI: 7.94 µM
CAKI-1 renal
  GI50: > 21.6 µM
  TGI: > 100 µM
NCI-H226 lung
  GI50: 20.5 µM
  TGI: > 100 µM
RPMI-8226 leukemia
  GI50: 4.07 µM
  TGI: > 85.7 µM
HL-60(TB) leukemia
  GI50: 3.12 µM
  TGI: 29.7 µM
MALME-3M melanoma
  GI50: 3.66 µM
  TGI: > 100 µM
K-562 leukemia
  GI50: 3.8 µM
  TGI: > 100 µM
HOP-62 NSCLC
  GI50: > 58.7 µM
  TGI: > 100 µM
SK-MEL-5 melanoma
  GI50: 5.71 µM
  TGI: > 100 µM
A498 renal
  GI50: 2.43 µM
  TGI: > 43.1 µM
COLO 205 colon
  GI50: 2.3 µM
  TGI: 6.62 µM
HCT-15 colon
  GI50: 3.09 µM
  TGI: > 100 µM
TK-10 renal
  GI50: > 39 µM
  TGI: > 94.1 µM
IGROV1 ovarian
  GI50: 13.7 µM
  TGI: > 100 µM
OVCAR-4 ovarian
  GI50: > 44.6 µM
  TGI: > 100 µM
A549 NSCLC
  GI50: 44.1 µM
  TGI: > 100 µM
PC-3 prostate
  GI50: 5.29 µM
  TGI: > 100 µM
UACC-62 melanoma
  GI50: 7.57 µM
  TGI: > 100 µM
SN12C renal
  GI50: > 100 µM
  TGI: > 100 µM
SK-OV-3 ovarian
  GI50: > 50.3 µM
  TGI: > 100 µM
T-47D breast
  GI50: 3.32 µM
  TGI: > 85.3 µM
NCI-H522 lung
  GI50: 10.3 µM
  TGI: > 100 µM
HS 578T breast
  GI50: 7.27 µM
  TGI: > 100 µM
RXF 393 renal
  GI50: 3.47 µM
  TGI: > 62.8 µM
OVCAR-8 ovarian
  GI50: > 30.4 µM
  TGI: > 100 µM
EKVX NSCLC
  GI50: 24.2 µM
  TGI: > 100 µM
OVCAR-3 ovarian
  GI50: 14.9 µM
  TGI: > 88.9 µM
HOP-92 NSCLC
  GI50: 4.73 µM
  TGI: > 100 µM
SF-295 CNS
  GI50: 2.87 µM
  TGI: 9.01 µM
SF-539 CNS
  GI50: 5.06 µM
  TGI: > 100 µM
KM12 colon
  GI50: 6.02 µM
  TGI: > 100 µM
SNB-19 CNS
  GI50: > 76.1 µM
  TGI: > 100 µM
NCI/ADR-RES ovarian
  GI50: 5.08 µM
  TGI: > 100 µM
MDA-MB-435
  GI50: > 47.9 µM
  TGI: > 100 µM
MOLT-4 leukemia
  GI50: 4.09 µM
  TGI: > 100 µM
HT29 colon
  GI50: 3.16 µM
  TGI: > 100 µM
BT-549 breast
  GI50: 8.22 µM
  TGI: > 100 µM
HCC-2998 colon
  GI50: 21.7 µM
  TGI: > 100 µM
NCI-H460 lung
  GI50: 3.06 µM
  TGI: > 28.5 µM
SR leukemia
  GI50: 1.93 µM
  TGI: 8.11 µM
NCI-H23 lung
  GI50: > 52.1 µM
  TGI: > 100 µM
LOX IMVI melanoma
  GI50: 12 µM
  TGI: > 100 µM
SW-620 colon
  GI50: 1.95 µM
  TGI: 4.62 µM
UO-31 renal
  GI50: 5.12 µM
  TGI: > 100 µM
SK-MEL-2 melanoma
  GI50: 8.46 µM
  TGI: > 100 µM
U251 CNS
  GI50: 4.94 µM
  TGI: > 100 µM
CCRF-CEM leukemia
  GI50: 5.66 µM
  TGI: > 100 µM
SF-268 CNS
  GI50: > 67.6 µM
  TGI: > 100 µM
SK-MEL-28 melanoma
  GI50: 3.83 µM
  TGI: 97.2 µM
HCT-116 colon
  GI50: 4.14 µM
  TGI: > 100 µM
